In patent US10022354B2, “Pyrrolidine amide compounds as histone demethylase inhibitors” (GENENTECH, INC., priority 2014, dated 2018) one finds IC50 and EC50 data, which are given here for 20 compounds.

One assay concerns the target full length KDM5A enzyme (Homo sapiens (Human), UniProt P29375). The assay is described as follows: KDM5 Enzyme Assay (KDM5A HTRF). Format: biochemical. As to conditions: 2 nM full length KDM5A, 100 nM H3K4Me3 peptide, 1 uM 2-OG, 30 min room temperature. A digest of the protocol: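 KDM5A demethylase activity was assessed by HTRF using in-house expressed and purified full length human KDM5A at 2 nM with 100 nM biotinylated H3K4Me3 peptide and 1 uM 2-OG. The 10 uL reaction also held 100 uM Fe^2+, 500 uM ascorbate, 50 mM HEPES pH 7.0, 0.01% Triton-X 100, 2 mM DTT and 0.25% DMSO. Detection used Eu-labeled H3K4me1-2 antibody and streptavidin-XL665, read on an Envision reader.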

The subject of assay [1] is H3K4Me3 mark level in PC9 cells. Nature of the assay: KDM5 Cell Assay (H3K4Me3 mark level, PC9 HTRF). Format: cell-based. As to conditions: Homo sapiens, PC-9, 120 hours at 37° C. As for the experimental part:
PC9 cells were seeded in a 384 well plate (2000 cells/well) with a test compound and incubated for 120 hours at 37° C. H3K4Me3 mark level was assessed using HTRF reagents from CisBio. Briefly, media was removed and cells were lysed in 20 μL of Epigeneous Cell Histone lysis buffer C for 45 min at 26° C., shaking. 10 μL of 4 μg/mL acceptor antibody (H3K4me3-d2) and 10 μL of 1.2 μg/mL donor antibody (Total H3-K) in Cell Histone detection buffer were added and the mixture was incubated at 26° C. for 1 hour. Assay plate was read subsequently on Envision (Perkin Elmer). Each compound was run in duplicate. Data were normalized to DMSO treated wells as the low response and EC50's were calculate using a four-parameter fit.

Sequence of full length KDM5A enzyme (P29375 whole entry): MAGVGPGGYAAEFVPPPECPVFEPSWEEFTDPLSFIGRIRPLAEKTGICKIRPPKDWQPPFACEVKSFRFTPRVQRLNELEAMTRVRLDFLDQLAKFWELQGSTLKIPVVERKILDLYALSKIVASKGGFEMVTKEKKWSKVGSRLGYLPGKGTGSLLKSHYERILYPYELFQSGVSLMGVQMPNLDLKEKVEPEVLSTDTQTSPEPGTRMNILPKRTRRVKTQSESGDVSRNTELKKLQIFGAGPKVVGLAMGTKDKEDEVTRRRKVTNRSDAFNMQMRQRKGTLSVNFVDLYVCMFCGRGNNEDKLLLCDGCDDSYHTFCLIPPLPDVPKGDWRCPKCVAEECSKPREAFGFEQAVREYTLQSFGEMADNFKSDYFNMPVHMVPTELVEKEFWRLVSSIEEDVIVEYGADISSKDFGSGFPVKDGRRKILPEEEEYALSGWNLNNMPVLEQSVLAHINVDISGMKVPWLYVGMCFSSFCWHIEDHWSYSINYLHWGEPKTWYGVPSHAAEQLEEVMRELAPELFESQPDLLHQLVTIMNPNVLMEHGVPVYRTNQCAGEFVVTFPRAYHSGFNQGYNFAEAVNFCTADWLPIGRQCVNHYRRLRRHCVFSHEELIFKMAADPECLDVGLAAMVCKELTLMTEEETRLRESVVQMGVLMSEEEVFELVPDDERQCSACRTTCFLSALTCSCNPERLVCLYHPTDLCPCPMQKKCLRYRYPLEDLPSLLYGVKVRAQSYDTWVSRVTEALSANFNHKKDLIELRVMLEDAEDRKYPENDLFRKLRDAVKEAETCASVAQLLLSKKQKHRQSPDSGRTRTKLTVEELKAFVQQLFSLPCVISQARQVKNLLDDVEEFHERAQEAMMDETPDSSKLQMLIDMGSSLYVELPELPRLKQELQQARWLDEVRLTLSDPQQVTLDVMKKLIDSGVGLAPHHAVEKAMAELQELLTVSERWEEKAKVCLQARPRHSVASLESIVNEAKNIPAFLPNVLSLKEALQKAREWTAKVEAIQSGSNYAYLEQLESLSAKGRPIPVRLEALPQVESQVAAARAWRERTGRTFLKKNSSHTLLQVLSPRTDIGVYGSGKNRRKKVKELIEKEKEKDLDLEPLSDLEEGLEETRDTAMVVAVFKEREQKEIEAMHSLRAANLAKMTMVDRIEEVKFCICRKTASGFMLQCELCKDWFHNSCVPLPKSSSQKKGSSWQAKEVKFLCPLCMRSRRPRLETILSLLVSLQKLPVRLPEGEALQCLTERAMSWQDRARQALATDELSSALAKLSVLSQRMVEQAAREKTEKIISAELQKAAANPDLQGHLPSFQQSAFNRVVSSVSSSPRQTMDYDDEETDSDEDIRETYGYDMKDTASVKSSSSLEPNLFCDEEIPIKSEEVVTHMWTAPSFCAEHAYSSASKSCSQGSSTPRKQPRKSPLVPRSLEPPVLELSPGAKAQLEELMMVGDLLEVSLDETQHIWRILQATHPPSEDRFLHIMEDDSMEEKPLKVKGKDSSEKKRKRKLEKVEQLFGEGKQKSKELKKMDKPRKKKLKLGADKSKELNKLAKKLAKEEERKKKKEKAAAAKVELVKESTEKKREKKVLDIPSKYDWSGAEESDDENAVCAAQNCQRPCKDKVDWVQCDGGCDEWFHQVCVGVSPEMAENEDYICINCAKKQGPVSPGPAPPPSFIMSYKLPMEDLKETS

For the compound `CC(C)c1cc(C(=O)N2CC[C@@H](NC(=O)C3CC3)C2)[nH]n1` [Example 29, (R)—N-(1-(3-isopropyl-1H-pyrazole-5-carbonyl)pyrrolidin-3-yl)cyclopropane Carboxamide], the 50% inhibitory concentration (IC50) (as a rule, the concentration that gives 50% inhibition) against full length KDM5A enzyme came out at 0.049 nM. Also, it took 0.93 nM to reach a half-maximal effect in assay [1] (EC50).

The compound `CC(C)c1cc(C(=O)N2CCC(NC(=O)NC3CC3)C2)[nH]n1` (stereo not shown) [Example 33, 1-Cyclopropyl-3-(1-(3-isopropyl-1H-pyrazole-5-carbonyl)pyrrolidin-3-yl)urea] had an IC50 on full length KDM5A enzyme of 0.087 nM. Also, the midpoint of the response in assay [1], the EC50, lay at 3.3 nM.

Regarding `CC(C)c1cc(C(=O)N2C[C@H](NC(=O)C3CC3)C3(CC3)C2)[nH]n1` [Example 220], on full length KDM5A enzyme, the IC50 was 0.16 nM. Also, the midpoint of the response in assay [1], the EC50, lay at 2.5 nM.

As to `CC(C)c1cc(C(=O)N2CC[C@@H](NC(=O)C3CC34CC4)C2)[nH]n1` (stereo partly shown) [Example 228], the 50% inhibitory concentration (IC50) on full length KDM5A enzyme was found to be 0.078 nM. The response in assay [1] was half-maximal at 1.1 nM (EC50).

Turning to `CC(C)c1cc(C(=O)N2CCC(n3cc(Br)cn3)C2)[nH]n1` (stereo not shown) [Example 59], the half-maximal inhibitory concentration (IC50) at full length KDM5A enzyme came out at 0.74 nM. Also, a half-maximal effect in assay [1] (EC50) was put at 30 nM.

At full length KDM5A enzyme, `CC(C)c1cc(C(=O)N2CC[C@@H](NC(=O)[C@H]3C[C@H]3F)C2)[nH]n1` [Example 222] yielded a half-maximal inhibitory concentration (IC50) of 0.025 nM. The EC50 (usually the concentration giving half of the maximal effect) in assay [1] came to 1.3 nM.

At full length KDM5A enzyme, `CC(C)c1cc(C(=O)N2C[C@H](NC(=O)C3CC3)[C@@H](O)C2)[nH]n1` [Example 219] came in with an IC50 of 0.046 nM. In assay [1], this compound came in with a half-maximal effective concentration (EC50) of 1.8 nM.

As to `CC(C)c1cc(C(=O)N2CCC(NC(=O)c3ccc4cc[nH]c4n3)C2)[nH]n1` (stereo not shown) [Example 135], the half-maximal inhibitory concentration (IC50) on full length KDM5A enzyme worked out at 0.076 nM. This compound also gave an EC50 in assay [1] of 4.9 nM.

Compound `CCC1(C(=O)NC2CCN(C(=O)c3cc(C(C)C)n[nH]3)C2)CC1` (stereo not shown) [Example 141] displayed an IC50 against full length KDM5A enzyme of 0.14 nM. Besides, in assay [1], the EC50 is 6.5 nM.

`CC(C)c1cc(C(=O)N2C[C@H](NC(=O)C3CC3)[C@@H](F)C2)[nH]n1` [Example 218] yielded an IC50 at full length KDM5A enzyme of 0.05 nM. Also, in assay [1], the midpoint of the response, the EC50, lay at 1.7 nM.

At full length KDM5A enzyme, `CC(C)c1cc(C(=O)N2CC[C@@H](NC(=O)C3(F)CC3)C2)[nH]n1` [Example 221] came in with an IC50 of 0.051 nM. The same compound yielded an EC50 in assay [1] of 2.1 nM.

Turning to `CC(C)c1cc(C(=O)N2CCC(n3cc(Br)c(C4CC4)n3)C2)[nH]n1` (stereo not shown) [Example 234], the half-maximal inhibitory concentration (IC50) against full length KDM5A enzyme is 0.16 nM. This compound also displayed a 50% effective concentration (EC50) in assay [1] of 19 nM.

`CC(C)c1cc(C(=O)N2CC[C@H](NC(=O)c3ccccc3)C2)[nH]n1` [Example 117]: the concentration for half-maximal inhibition (IC50) against full length KDM5A enzyme was determined as 0.077 nM. For the same compound, the EC50 in assay [1] was 8.2 nM.

`CC(CCCc1ccccc1)c1cc(C(=O)N2CCC(NC(=O)C3CC3)C2)n[nH]1` (stereo not shown) [Example 22, N-(1-(5-(5-phenylpentan-2-yl)-1H-pyrazole-3-carbonyl)pyrrolidin-3-yl) cyclopropanecarboxamide] returned a half-maximal inhibitory concentration (IC50) against full length KDM5A enzyme of 0.12 nM. It took 11 nM to reach a half-maximal effect in assay [1] (EC50).

In the case of `CC(C)c1cc(C(=O)N2CC[C@@H](n3cccc(C4CC4)c3=O)C2)[nH]n1` [Example 41, (R)-3-cyclopropyl-1-(1-(3-isopropyl-1H-pyrazole-5-carbonyl)pyrrolidin-3-yl)pyridin-2(1H)-one], the half-inhibitory concentration (IC50) at full length KDM5A enzyme worked out at 0.051 nM. In assay [1], this compound had an EC50 of 6.8 nM.

Consider `O=C(NC1CCN(C(=O)c2cc(C3CCC3)n[nH]2)C1)C1CC1` (stereo not shown) [Example 210], for which, on full length KDM5A enzyme, the IC50 is 0.16 nM. Moreover, in assay [1], it took 6.7 nM to reach a half-maximal effect (EC50).

For `CC(C)c1cc(C(=O)N2CC[C@@H](n3ncc4c(F)cccc43)C2)[nH]n1` [Example 246], the IC50 on full length KDM5A enzyme amounted to 0.3 nM. This compound came in with a half-maximal effective concentration (EC50) in assay [1] of 23 nM.

Compound `CC(C)n1cnc(C(=O)N2CCC(NC(=O)C3CC3)C2)c1` (stereo not shown) [Example 19, N-(1-(1-isopropyl-1H-imidazole-4-carbonyl)pyrrolidin-3-yl)cyclopropanecarboxamide] yielded a half-maximal inhibitory concentration (IC50) at full length KDM5A enzyme of 0.21 nM. Further, the 50% effective concentration (EC50) in assay [1] worked out at 26 nM.

With `CC(CCc1ccccc1)c1cc(C(=O)N2CCC(NC(=O)C3CC3)C2)[nH]n1` (stereo not shown) [Example 212], on full length KDM5A enzyme, 0.12 nM corresponded to half-maximal inhibition (IC50). In assay [1], this compound came in with a concentration for a half-maximal effect (EC50) of 11 nM.

Compound `CC(C)c1cc(C(=O)N2CCC(n3cc(Br)c(C(C)C)n3)C2)[nH]n1` (stereo not shown) [Example 238] displayed an IC50 against full length KDM5A enzyme of 0.15 nM. Besides, in assay [1], the 50% effective concentration (EC50) was 7 nM.
